Test [1] relates to pro-inflammatory cytokine production of human PBMCs. The format is cell-based.
Test [2] concerns MyD88-mediated NF-kB driven SEAP reporter response. Type of test: cell-based, human.
In a further test the test system is HEK293-TLR3 cells. The format is cell-based, human.
In test [3] the test system is lethal endotoxic shock (LPS) in mice. The conditions noted are these: mouse, in vivo.
The subject of the next test is Rift valley fever virus. The format is cell-based. As to conditions: read-out: IC50 reduction of virus replication.
The test system of test [4] is SEB-induced toxic shock in BALB/c mice. The conditions noted are these: mouse, in vivo.
The test system of a further test is Ebola virus. Type of test: cell-based. As to conditions: read-out: IC50 reduction of virus replication.
The target in test [5] is T1, MyD88 and IRF3 interaction (Homo sapiens, UniProt Q99836).
T1 construct: no number printed for the IRF3-HA plasmid; host or cells: HEK293-TLR3 (InvivoGen)
T1 sequence (Q99836 whole entry): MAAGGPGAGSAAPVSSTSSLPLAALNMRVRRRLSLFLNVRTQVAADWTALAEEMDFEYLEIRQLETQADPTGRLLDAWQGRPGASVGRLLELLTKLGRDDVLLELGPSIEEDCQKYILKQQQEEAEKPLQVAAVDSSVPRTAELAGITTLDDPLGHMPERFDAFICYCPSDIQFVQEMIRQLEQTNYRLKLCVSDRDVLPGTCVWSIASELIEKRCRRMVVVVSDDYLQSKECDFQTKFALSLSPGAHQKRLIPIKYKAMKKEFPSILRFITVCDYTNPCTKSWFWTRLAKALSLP
The format is cell-based.

Another test deals with VEEV (TC-83). More on the design: species or system C3H/HeN mice. The conditions noted are these: mouse, in vivo, ip.
Test [6] has as its system human glioblastoma astrocytoma U87 cells. The format is cell-based.
The test system of the next test is dengue virus. The format is cell-based. As to conditions: read-out: IC50 reduction of virus replication.
In the next test the test system is IRF3 phosphorylation. Type of test: cell-based, human.
In the next test the test system is Lassa virus. Type of test: cell-based. As to conditions: read-out: IC50 reduction of virus replication.
The next test concerns U937 cells. The format is cell-based, human.
Test [7] relates to pro-inflammatory cytokine production in spleen cells of BALB/c and C57BL/6 mice. Type of test: cell-based, mouse.

Values joined by “and” are separate entries in the source; they are usually repeats but may differ in a detail not shown here. Equal values may be shown once. Read-outs that look alike come from different tables or passages of the source.

Experimental findings from US9833437B2 (priority 2014, dated 2017) are described below.

For `CC(C)[C@H](NC(=O)CCc1ccccc1)C(=O)N1CCCC1` [Compound 1, Hydrocinnamoyl-L-valyl-pyrrolidine, reference compound], the IC50 in [1] (read-out: IC50 IFN-γ) is 41 µM and 40 µM; in test [1] (read-out: IC50 IL-1β) it was 24 µM; in test [1] (read-out: IC50 IL-6), 14 µM; in test [1] (read-out: IC50 TNF-α), 19 µM; in test [2], 180 µM.

Regarding `CC(C)[C@@H](C(=O)N1CCCC1)N(CCCc1ccccc1)C(=O)[C@H]1CC[C@H](C(=O)N(CCCc2ccccc2)[C@H](C(=O)N2CCCC2)C(C)C)CC1` [Compound 4210], the RANTES production entry in the test with HEK293-TLR3 cells is recorded as “increased in RANTES production”. For the same compound, in [3], the effect on death entry is on record as “delayed death” and the “mice protected from lethal endotoxic shock” value amounted to 33%. The IC50 in the test on Rift valley fever virus is 22 µM. In addition, the “inhibition of cytokine production” value in test [1] is reported as “inhibited cytokine production”. Moreover, the IC50 in test [1] (read-out: IC50 IFN-γ) was 0.3 µM and 0.9 µM. The IC50 in [1] (read-out: IC50 IL-1β) turned out to be 0.73 µM. Moreover, the IC50 in [1] (read-out: IC50 IL-6) was 0.4 µM and 0.17 µM. For the same compound, the IC50 in [1] (read-out: IC50 TNF-α) turned out to be 0.27 µM. Moreover, the IC50 in [1] (read-out: average inhibitory concentration (IC50) for most of the pro-inflammatory cytokines tested) was 1 to 50 µM. Besides, in test [4], the “amount giving therapeutic efficacy from toxic shock-induced death with lethal SEB challenge” value turned out to be 1 mg; the “effect on death, post-exposure treatment” value is listed as “delayed in death”; the protection entry was “completely protected”; the “protection, post-exposure treatment” value is reported as 33%. Moreover, the survivability in test [4] was 33% and 66%. The IC50 in the test on Ebola virus is 42 µM. For the same compound, in [5], the “MyD88-associated IRF3 band after pull down with Flag antibody” value was “dose dependent decrease of IRF3 band”. Further, in the test on VEEV (TC-83), the clinical disease score result is “less clinical diseases score”, the survival entry is given as “increased survival” and the weight loss entry is “significantly prevented weight loss”. Besides, in [6], the IFN-β production entry is on record as “increased IFN-β production in a dose dependent manner” and the RANTES production result is listed as “increase in RANTES production”. Also, in the test with dengue virus, the IC50 came to 31 µM. Besides, in the test with IRF3 phosphorylation, the “phosphorylation of IRF-3” value is on record as “increase in phosphorylation was observed in a dose dependent manner”. Also, in the test on Lassa virus, the IC50 stood at 35 µM. In addition, in the test with U937 cells, the RANTES production entry is reported as “increase in antiviral RANTES production”; the “expression of co-stimulatory molecules CD86 and CD80” value is “increased expression co-stimulatory molecules such as CD86 and CD80”; the “increase in IFN-β production” value is “over 3 fold”. In addition, in test [7], the “inhibition of pro-inflammatory cytokine production in spleen cell cultures” value is “inhibited most of the pro-inflammatory cytokine production”.
